Key:
[1] = system: HER2/Neu protein; experiment: HER2 degradation assay; format: cell-based; conditions: Homo sapiens; 50% degradation of HER2/Neu protein, MCF7 cells, 16 h
Method: MCF7 breast carcinoma cells (ATCC) were grown in Dulbecco's modified Eagle's medium (DMEM) containing 10% fetal bovine serum (FBS) and 10 mM HEPES, and plated in 24 well plates (50% confluent). Twenty-four hrs later (cells are 65-70% confluent), test compounds were added and incubated overnight for 16 h. […] The wells were washed with 1 mL phosphate buffered saline (PBS), and 200 μL trypsin was added to each well. After trypsinization was complete, 50 μL of FBS was added to each well. Then 200 μL cells was transferred to 96 well plates. The cells were pipetted up and down to obtain a single cell suspension. The plates were centrifuged at 2,500 rpm for 1 min using a Sorvall Legend RT™ tabletop centrifuge (Kendro Laboratory Products, Asheville, N.C.). The cells were then washed once in PBS containing 0.2% BSA and 0.2% sodium azide (BA buffer). Phycoerythrin (PE) conjugated anti HER2/Neu antibody (Becton Dickinson, #340552), or PE conjugated anti-keyhole limpet hemocyanin [KLH] (Becton Dickinson, #340761) control antibody was added at a dilution of 1:20 and 1:40 respectively (final concentration was 1 μg/mL) and the cells were pipeted up and down to form a single cell suspension, and incubated for 15 mins. The cells were washed twice with 200 μL BA buffer, and resuspended in 200 μL BA buffer, and transferred to FACSCAN tubes with an additional 250 μL BA buffer. Samples were analyzed using a FACSCalibur™ flow cytometer (Becton Dickinson, San Jose, Calif.) equipped with Argon-ion laser that emits 15 mW of 488 nm light for excitation of the PE fluorochrome. 10,000 events were collected per sample. A fluorescence histogram was generated and the mean fluorescence intensity (MFI) of each sample was determined using Celiquest software. The background was defined as the MFI generated from cells incubated with control IgG-PE, and was subtracted from each sample stained with the HER2/Neu antibody. Cells incubated with DMSO were used as untreated controls since the compounds were resuspended in DMSO. Percent degradation of HER2 was calculated as follows: % HER2 degraded=[(MF1 untreated cells−MF1 treated cells)/MF1 untreated cell]×100
IC50 is defined as the concentration at which there was 50% degradation of the HER2/Neu protein.

[2] = system: rHSP90 in the MCF7 cell lysates; experiment: Cell lysate binding assay; conditions: 50% inhibition of biotin-GM binding to rHSP90 in MCF7 cell lysates
Method: Cell Lysate Binding Assay
MCF7 breast carcinoma cell lysates were prepared by douncing in lysing buffer (20 mM HEPES, pH 7.3, 1 mM EDTA, 5 mM MgCl2, 100 mM KCl), and then incubated with or without test compound for 30 mins at 4° C., followed by incubation with biotin-GM linked to BioMag™ streptavidin magnetic beads (Qiagen) for 1 hr at 4° C. The tubes were placed on a magnetic rack, and the unbound supernatant removed. The magnetic beads were washed three times in lysis buffer and boiled for 5 mins at 95° C. in SDS-PAGE sample buffer. Samples were analyzed on SDS protein gels, and Western blots were done for rHSP90. Bands in the Western Blots were quantitated using the Bio-rad Fluor-S MultiImager, and the % inhibition of binding of rHSP90 to the biotin-GM was calculated.
The IC50 reported is the concentration of test compound needed to achieve 50% inhibition of the biotin-GM binding to rHSP90 in the MCF7 cell lysates.

[3] = system: MCF7 breast carcinoma cells; experiment: MTS assay; format: cell-based; conditions: Homo sapiens, 50% reduction in viable cell number
Method: MTS assays measure the cytotoxicity of geldanamycin derivatives. MTS (3-(4,5-dimethylthiazol-2-yl)-5-(3-carboxymethoxyphenyl)-2-(4-sulfophenyl)-2H-tetrazolium) is a tetrazolium dye that is converted to a formazan product by dehydrogenase enzymes of metabolically active cells (Corey, A. et al. “Use of an aqueous soluble tetrazolium/formazan assay for cell growth assays in culture,” Cancer Commun. 1991, 3, 207-212). Cells were seeded in 96 well plates at 2000 cells/well and allowed to adhere overnight in Dulbecco's modified Eagle's medium supplemented with 10% fetal bovine serum. The final culture volume was 100 μl. Viable cell number was determined by using the Celltiter 96 AQueous Non-radioactive Cell Proliferation Assay (Promega, Madison Wis.). The MTS /PMS (phenazine methosulfate) solution was mixed at a ratio of 20:1, and 20 μL was added per well to 100 μl of culture medium. After 2-4 hours, the formation of the formazan product was measured at 490 nm absorbance using a multiwell plate spectrophotometer. Background was determined by measuring the Abs 490 nm of cell culture medium and MTS-PMS in the absence of cells and was subtracted from all values. Percent viable cells was calculated as follows: % viable cells=(Abs at 490 nm treated cells/Abs at 490 nm untreated cells)×100
The effect of selected compounds of the invention on MCF7 breast carcinoma cells according to the MTS assay is summarized in Table 2. IC50 was defined as the concentration of the compound which gave rise to 50% reduction in viable cell number.

| IC50 [1] [nM] | IC50 [2] [nM] | IC50 [3] [nM] | Compound |
| --- | --- | --- | --- |
| 450 |  |  | COc1c(C)cnc(CN2C(=O)Cc3c(Cl)nc(N)nc32)c1C |
| 95 | 150 | 300 | COc1c(C)cnc(Cn2ccc3c(Cl)nc(N)nc32)c1C [Example 5, 4-Chloro-7-(4-methoxy-3,5-dimethyl-pyridin-2-ylmethyl)-7H-pyrrolo[2,3-d]pyrimidin-2-ylamine] |
| 23 |  | 100 | COc1c(C)c[n+]([O-])c(Cn2ccc3c(Cl)nc(N)nc32)c1C [Example 8, 4-Chloro-7-(4-methoxy-3,5-dimethyl-1-oxy-pyridin-2-ylmethyl)-7H-pyrrolo[2,3-d]pyrimidin-2-ylamine] |
| 250 |  | 600 | COc1c(C)c(Cl)nc(Cn2ccc3c(Cl)nc(N)nc32)c1C [Example 10, 4-Chloro-7-(6-chloro-4-methoxy-3,5-dimethyl-pyridin-2-ylmethyl)-7H-pyrrolo [2,3-d]pyrimidin-2-ylamine] |
| 80 | 90 | 200 | Cc1cnc(Cn2ccc3c(Cl)nc(N)nc32)c(C)c1Cl [Example 11, 4-Chloro-7-(4-chloro-3,5-dimethyl-pyridin-2-ylmethyl)-7H-pyrrolo[2,3-d]pyrimidin-2-ylamine] |
| 50 | 90 | 1000 | Cc1cnc(Cn2ccc3c(Cl)nc(N)nc32)c(C)c1Br [Example 13, 7-(4-Bromo-3,5-dimethyl-pyridin-2-ylmethyl)-4-chloro-7H-pyrrolo[2,3-d]pyrimidin-2-ylamine] |
| 38 | 50 | 1000 | Cc1c[n+]([O-])c(Cn2ccc3c(Cl)nc(N)nc32)c(C)c1Cl [Example 14, 4-Chloro-7-(4-chloro-3,5-dimethyl-1-oxy-pyridin-2-ylmethyl)-7H-pyrrolo[2,3-d]pyrimidin-2-ylamine] |
| 15 | 30 | 23 | Cc1c[n+]([O-])c(Cn2ccc3c(Cl)nc(N)nc32)c(C)c1Br [Example 15, 7-(4-Bromo-3,5-dimethyl-1-oxy-pyridin-2-ylmethyl)-4-chloro-7H-pyrrolo[2,3-d]pyrimidin-2-ylamine] |
| 42 |  | 1000 | COc1c(C)c[n+]([O-])c(Cn2ccc3c(Br)nc(N)nc32)c1C [Example 20, 4-Bromo-7-(4-methoxy-3,5-dimethyl-1-oxy-pyridin-2-ylmethyl)-7H-pyrrolo[2,3-d]pyrimidin-2-ylamine] |
| 170 |  | > 10000 | Cc1cnc(Cn2ccc3c(Br)nc(N)nc32)c(C)c1Cl [Example 21, 4-Bromo-7-(4-chloro-3,5-dimethyl-pyridin-2-ylmethyl)-7H-pyrrolo[2,3-d]pyrimidin-2-ylamine] |
| 65 |  | 1000 | Cc1c[n+]([O-])c(Cn2ccc3c(Br)nc(N)nc32)c(C)c1Cl [Example 22, 4-Bromo-7-(4-chloro-3,5-dimethyl-1-oxy-pyridin-2-ylmethyl)-7H-pyrrolo[2,3-d]pyrimidin-2-ylamine] |
| 130 |  | > 10000 | Cc1cnc(Cn2ccc3c(Br)nc(N)nc32)c(C)c1Br [Example 23, 4-Bromo-7-(4-bromo-3,5-dimethyl-pyridin-2-ylmethyl)-7H-pyrrolo[2,3-d]pyrimidin-2-ylamine] |
| 25 |  | 300 | Cc1c[n+]([O-])c(Cn2ccc3c(Br)nc(N)nc32)c(C)c1Br [Example 24, 4-Bromo-7-(4-bromo-3,5-dimethyl-1-oxy-pyridin-2-ylmethyl)-7H-pyrrolo[2,3-d]pyrimidin-2-ylamine] |
| 150 |  | > 10000 | COc1c(C)cnc(Cn2ccc3c(Br)nc(N)nc32)c1C [Example 25, 4-Bromo-7-(4-methoxy-3,5-dimethyl-pyridin-2-ylmethyl)-7H-pyrrolo[2,3-d]pyrimidin-2-ylamine] |
| 130 |  |  | COc1c(C)cnc(Cn2cc(C(C)C)c3c(Cl)nc(N)nc32)c1C [Example 43, 4-Chloro-5-isopropyl-7-(4-methoxy-3,5-dimethyl-pyridin-2-ylmethyl)-7H-pyrrolo[2,3-d]pyrimidin-2-ylamine] |
| 20 |  |  | Cc1c[n+]([O-])c(Cn2cc(C(C)C)c3c(Cl)nc(N)nc32)c(C)c1Cl [Example 45] |
| 1500 |  |  | Cc1cnc(CN2C(=O)Cc3c(Cl)nc(N)nc32)c(C)c1Cl [Example 48, 2-Amino-4-chloro-7-(4-chloro-3,5-dimethyl-pyridin-2-ylmethyl)-5,7-dihydro-pyrrolo[2,3-d]pyrimidin-6-one] |
| 180 |  | 900 | COc1c(C)c[n+]([O-])c(CN2C(=O)Cc3c(Cl)nc(N)nc32)c1C [Example 49, 2-Amino-4-chloro-7-(3,5-dimethyl-4-methoxy-1-oxy-pyridin-2-ylmethyl)-5,7-dihydro-pyrrolo[2,3-d]pyrimidin-6-one] |
| 400 |  | 10000 | COc1cc(CN2C(=O)Cc3c(Cl)nc(N)nc32)c(Br)c(OC)c1OC [Example 52, 2-Amino-4-chloro-7-(2-bromo-3,4,5-trimethoxy-benzyl)-5,7-dihydro-pyrrolo[2,3-d]pyrimidin-6-one] |

From patent US20050107343A1, “Pyrrolopyrimidines and related analogs as HSP90-inhibitors” (Conforma Therapeutics Corporation, priority 2003, published 2005)
